These are literature values, as cited in patent publication US11085047B2, “Synthetic cannabinoid compounds for treatment of substance addiction and other disorders” (MyMD Pharmaceuticals (Florida), Inc., priority 2018, dated 2021).

For series [1] the following is noted: several clinical studies.
The conditions of series [2]: 2.5 to 5 mg; three patients.

On to `CCCCCc1cc(O)c2c(c1)OC(C)(C)[C@@H]1CCC(C)=C[C@@H]21` [THC, tetrahydrocannabinol], for which the “mood in reactive depression” value in series [1] is recorded as “improvement of mood”. In series [2], the “effect on pruritus due to liver diseases” value is “effective”. Also, the bronchoconstriction after inhalation entry (inhalation of THC) is given as “Very few patients developed bronchoconstriction”. For the setting “oral THC (15 mg), acute studies”, the anti-asthmatic effect entry is “approximately correspond to those obtained with therapeutic doses of common bronchodilator drugs”.
